Assay results from article PMC12326988, “Synthetic host defense peptide inhibits SARS-CoV-2 replication in vitro” (Antimicrobial Agents and Chemotherapy, 2025).
Converted amounts (≈) assume the structure as drawn. Square brackets hold non-standard residues; d marks the D form. Ends that are not written are not given here. Peptide text beside a SMILES is read from it.

Assays:
in vitro [1] = conditions: African green monkey; human
[2] = system: authentic SARS-CoV-2 virions; conditions: 100 µg/mL, 1 h
[3] = system: SARS-CoV-2 (Wuhan) spike-pseudotyped virus; conditions: for EC50, entry of pseudotyped virus: HEK293T-ACE2 cells incubated with agent prior to pseudotyped virus
VSV-g-pseudotyped virus = format: cell-based; conditions: virus exposed to agent 1 h, then HEK293T-hACE2 cells
[4] = system: SARS-CoV-2 γ spike-pseudotyped virus; format: cell-based; conditions: virus exposed to agent 1 h, then HEK293T-hACE2 cells
in vitro [5] = conditions: African green monkey
[6] = system: SARS-CoV-2 hCoV-19/New Zealand/NZ1_patient/2020; conditions: hCoV-19/New Zealand/NZ1 patient/2020, 72 h
[7] = system: SARS-CoV-2 hCoV-19/New Zealand/NZ1_patient/2020; conditions: hCoV-19/New Zealand/NZ1 patient/2020, 72 h; remark: listed apart in the source
[8] = system: SARS-CoV-2 hCoV-19/New Zealand/NZ1_patient/2020; format: cell-based
[9] = system: binding of the SARS-CoV-2 RBD to its human ACE2 receptor; conditions: cited from earlier work
ELVIRA Flu A cells = conditions: 50 µg/mL
MDCK cells = conditions: 50 µg/mL
SARS-CoV-2-Nluc = conditions: 72 h
[10] = target: binding between SARS-CoV-2 Wuhan RBD-Fc and hACE2-AP (UniProt P0DTC2+Q9BYF1); design: species or system SARS-CoV-2; human
binding between SARS-CoV-2 Wuhan RBD-Fc and hACE2-AP, sequence (Q9BYF1 18-740, one chain of several): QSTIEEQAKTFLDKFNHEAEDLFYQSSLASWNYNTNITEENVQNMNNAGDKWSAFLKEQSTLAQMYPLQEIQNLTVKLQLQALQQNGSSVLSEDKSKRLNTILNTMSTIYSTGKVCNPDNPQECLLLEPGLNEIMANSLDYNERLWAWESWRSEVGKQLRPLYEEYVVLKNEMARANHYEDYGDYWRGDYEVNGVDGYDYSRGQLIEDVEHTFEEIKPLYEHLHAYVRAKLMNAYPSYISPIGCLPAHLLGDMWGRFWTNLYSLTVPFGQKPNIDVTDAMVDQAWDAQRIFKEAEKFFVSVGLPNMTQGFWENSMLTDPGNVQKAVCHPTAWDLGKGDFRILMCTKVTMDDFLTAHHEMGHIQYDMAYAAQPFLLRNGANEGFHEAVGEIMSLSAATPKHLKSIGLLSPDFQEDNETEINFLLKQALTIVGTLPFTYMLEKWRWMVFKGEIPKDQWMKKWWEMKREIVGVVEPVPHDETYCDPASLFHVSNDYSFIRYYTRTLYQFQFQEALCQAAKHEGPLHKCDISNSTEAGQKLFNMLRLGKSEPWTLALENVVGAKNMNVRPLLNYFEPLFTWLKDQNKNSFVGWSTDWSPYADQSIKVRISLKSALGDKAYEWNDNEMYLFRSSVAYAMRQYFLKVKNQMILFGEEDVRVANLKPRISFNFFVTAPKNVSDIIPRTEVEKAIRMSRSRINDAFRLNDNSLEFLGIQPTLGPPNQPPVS

## CC[C@H](C)[C@H](NC(=O)CN)C(=O)NCC(=O)N[C@@H](C)C(=O)N[C@H](C(=O)N[C@@H](CC(C)C)C(=O)N[C@@H](CCCCN)C(=O)N[C@H](C(=O)N[C@@H](CC(C)C)C(=O)N[C@H](C(=O)N[C@H](C(=O)NCC(=O)N[C@@H](CC(C)C)C(=O)N1CCC[C@H]1C(=O)N[C@@H](C)C(=O)N[C@@H](CC(C)C)C(=O)N[C@H](C(=O)N[C@@H](CO)C(=O)N[C@@H](Cc1c[nH]c2ccccc12)C(=O)N[C@H](C(=O)N[C@@H](CCCCN)C(=O)N[C@@H](CCCNC(=N)N)C(=O)N[C@@H](CCCCN)C(=O)N[C@@H](CCCNC(=N)N)C(=O)N[C@@H](CCC(N)=O)C(=O)N[C@@H](CCC(N)=O)C(N)=O)[C@@H](C)CC)[C@@H](C)CC)[C@@H](C)O)[C@@H](C)O)C(C)C)C(C)C [melittin]
In vitro [1]
  viability: 51.7%
[2]
  mean number of intact virus particles per field: 1.3
[3]
  EC50, entry of pseudotyped virus: 13.2 µg/mL
[3]; agent incubated with pseudotyped virus 1 h, then HEK293T-hACE2 cells
  NT50: 12.5 µg/mL
VSV-g-pseudotyped virus
  NT50: 5.51 µg/mL
[4]
  NT50: 11.6 µg/mL

## CC[C@@H](C)[C@@H](NC(=O)[C@@H](C)NC(=O)[C@@H](CCCNC(=N)N)NC(=O)[C@@H](Cc1c[nH]c2ccccc12)NC(=O)[C@@H](CCC(N)=O)NC(=O)[C@H](N)C(C)C)C(=O)N[C@H](CCCNC(=N)N)C(=O)N[C@@H](C(=O)N[C@H](CCCNC(=N)N)C(=O)N[C@@H](C(=O)N[C@@H](C(=O)N[C@H](CCCNC(=N)N)C(N)=O)[C@H](C)CC)C(C)C)C(C)C [DJK-5, vqwrairvrvir-NH2] (H-[dV][dQ][dW][dR][dA][dI][dR][dV][dR][dV][dI][dR]-NH2)
In vitro [5]
  CC50: 517 µg/mL
[6]
  EC50 Vero: 25.16 µg/mL (≈ 16.2 µM)
[7]
  EC50 VeroE6/TMPRSS2: 29.31 µg/mL (≈ 18.9 µM)

## VRLIVAVRIWRR-NH2 [IDR-1018]
In vitro [5]
  CC50: 686 µg/mL
[6]
  EC50 Vero: 21.79 µg/mL
[7]
  EC50 VeroE6/TMPRSS2: 28.72 µg/mL

## CCC(CC)COC(=O)[C@H](C)N[P@](=O)(OC[C@H]1O[C@@](C#N)(c2ccc3c(N)ncnn23)[C@H](O)[C@@H]1O)Oc1ccccc1 [Remdesivir, remdesivir, reference compound]
In vitro [5]
  CC50: > 100 µM
[8]
  inhibition of SARS-CoV-2 replication: 98%

## LL-37
[9]
  affinity, interference with binding of SARS-CoV-2 RBD to human ACE2: 25.5 nM

## HNP1
[9]
  affinity, interference with binding of SARS-CoV-2 RBD to human ACE2: 160 nM

## CC[C@@H](C)[C@@H](NC(=O)[C@@H](CCCCN)NC(=O)[C@@H](CC(C)C)NC(=O)[C@H](N)C(C)C)C(=O)N[C@H](CCCCN)C(=O)N[C@@H](C(=O)N[C@H](CCCCN)C(=O)N[C@@H](C(=O)N[C@H](Cc1c[nH]c2ccccc12)C(=O)N[C@@H](C(=O)N[C@@H](C(=O)N[C@H](CCCCN)C(N)=O)C(C)C)C(C)C)[C@H](C)CC)C(C)C [D-3007, vlkikvkiwvvk-NH2] (H-[dV][dL][dK][dI][dK][dV][dK][dI][dW][dV][dV][dK]-NH2)
In vitro [5]
  CC50: 708 µg/mL
[6]
  EC50 Vero: 23.86 µg/mL (≈ 16.4 µM)
[7]
  EC50 VeroE6/TMPRSS2: 30.53 µg/mL (≈ 21 µM)

## CC[C@@H](C)[C@@H](N)C(=O)N[C@H](Cc1c[nH]c2ccccc12)C(=O)N[C@H](CC(C)C)C(=O)N[C@H](CCCNC(=N)N)C(=O)N[C@H](CC(C)C)C(=O)N[C@H](CCCCN)C(=O)N[C@@H](C(=O)N[C@@H](C(=O)N[C@H](CC(C)C)C(=O)N[C@H](CCCCN)C(=O)N[C@H](CCCNC(=N)N)C(=O)N[C@H](CCCCN)C(N)=O)C(C)C)C(C)C [D-3006, iwlrlkvvlkrk-NH2] (H-[dI][dW][dL][dR][dL][dK][dV][dV][dL][dK][dR][dK]-NH2)
In vitro [5]
  CC50: 430 µg/mL
ELVIRA Flu A cells
  cell viability: did not affect the viability
MDCK cells
  cell viability: did not affect the viability
[6]
  EC50 Vero: 1.57 µg/mL (≈ 1.01 µM)
In vitro [1]
  CC50 at 48 h: > 100 µg/mL
[3]
  EC50, entry of pseudotyped virus: 5.84 µg/mL
SARS-CoV-2-Nluc
  EC50: 5.4 µg/mL (≈ 3.48 µM)
[7]
  EC50 VeroE6/TMPRSS2: 5.37 µg/mL (≈ 3.46 µM)

## shACE2
[8]
  inhibition of SARS-CoV-2 replication: 72%
[10]
  IC50, inhibition of hACE2-RBD binding: 6.6 µg/mL
VSV-g-pseudotyped virus
  NT50: > 100 µg/mL
